For assay [1], the target named is T1, Acetylcholinesterase (Homo sapiens, UniProt P22303).
Description: Inhibition of AChE (unknown origin) using acetylcholine iodate as substrate preincubated for 10 mins followed by substrate addition by Ellman's method
Assay [2] deals with T1, Acetylcholinesterase. The source holds these as a separate data set.
Description: Inhibition of AChE (unknown origin) using acetylcholine iodate as substrate preincubated for 10 mins followed by substrate addition by Lineweaver-Burk plot analysis
Assay [3] concerns the target Acetylcholinesterase (Electrophorus electricus, UniProt O42275).
Description: Inhibition of electric eel AChE using acetylthiocholine iodide as substrate preincubated for 10 mins followed by substrate addition by Lineweaver-Burk plot analysis

T1 sequence (P22303 whole entry): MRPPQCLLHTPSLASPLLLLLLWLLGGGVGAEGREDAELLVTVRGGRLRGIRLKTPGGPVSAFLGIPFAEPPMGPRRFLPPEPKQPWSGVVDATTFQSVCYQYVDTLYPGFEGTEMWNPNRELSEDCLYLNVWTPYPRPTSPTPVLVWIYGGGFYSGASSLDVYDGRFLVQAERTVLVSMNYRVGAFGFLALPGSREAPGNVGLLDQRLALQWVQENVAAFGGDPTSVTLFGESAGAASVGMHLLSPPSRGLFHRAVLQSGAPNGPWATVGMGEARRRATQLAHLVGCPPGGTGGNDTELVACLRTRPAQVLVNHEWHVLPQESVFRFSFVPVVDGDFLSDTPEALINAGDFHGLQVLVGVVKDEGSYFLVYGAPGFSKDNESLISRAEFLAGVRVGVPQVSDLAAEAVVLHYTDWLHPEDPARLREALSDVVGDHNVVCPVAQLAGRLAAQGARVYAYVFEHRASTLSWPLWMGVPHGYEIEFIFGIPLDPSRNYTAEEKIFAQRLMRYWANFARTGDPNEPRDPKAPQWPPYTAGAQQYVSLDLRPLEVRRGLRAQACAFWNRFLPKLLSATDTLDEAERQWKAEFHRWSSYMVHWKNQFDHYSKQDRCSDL
Acetylcholinesterase (Electrophorus electricus, UniProt O42275), sequence (O42275 whole entry): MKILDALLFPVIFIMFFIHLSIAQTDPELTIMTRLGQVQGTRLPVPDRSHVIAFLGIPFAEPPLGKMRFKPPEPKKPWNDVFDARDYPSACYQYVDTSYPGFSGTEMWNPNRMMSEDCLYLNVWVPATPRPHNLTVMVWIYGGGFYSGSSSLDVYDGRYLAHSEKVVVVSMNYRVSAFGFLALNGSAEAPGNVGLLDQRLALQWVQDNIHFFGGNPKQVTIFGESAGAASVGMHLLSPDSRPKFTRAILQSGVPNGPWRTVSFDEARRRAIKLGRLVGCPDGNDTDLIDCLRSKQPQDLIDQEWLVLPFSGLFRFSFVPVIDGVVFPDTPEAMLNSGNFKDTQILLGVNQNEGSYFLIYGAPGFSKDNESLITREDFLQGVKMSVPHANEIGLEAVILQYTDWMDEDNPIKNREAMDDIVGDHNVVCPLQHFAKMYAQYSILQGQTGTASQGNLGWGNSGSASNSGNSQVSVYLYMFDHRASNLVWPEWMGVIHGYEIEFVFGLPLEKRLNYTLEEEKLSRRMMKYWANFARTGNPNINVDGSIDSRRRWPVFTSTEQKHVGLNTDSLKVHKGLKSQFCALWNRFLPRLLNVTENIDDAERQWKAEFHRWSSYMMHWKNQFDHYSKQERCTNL

The term IC50 denotes the concentration that gives 50% inhibition. A higher IC50 goes with a need for much substance. Broadly, the Ki is the dissociation constant of the complex between target and ligand, obtained from inhibition or displacement. A high value points to a looser hold on the target. Regarding `CN(C)C(=O)N[C@H]1CCc2ccc(O)cc2C1`, the IC50 in assay [1] came to 103 nM. In assay [2], this compound showed a Ki of 1.74 nM. On the same counts, the results for `CN(C)C(=O)NC1CCc2cc(O)ccc2C1` (stereo not drawn) are 7.16 nM and 1.33 nM. Take `CN(C)S(=O)(=O)N[C@H]1CCc2cc(O)ccc2C1`: half-maximal inhibition in assay [1] (IC50) was put at 27.9 nM. In assay [2], this compound had a Ki of 1.22 nM. In assay [1], `COc1ccc2c(c1)CC(NS(=O)(=O)N(C)C)CC2` (stereo not drawn) came in with an IC50 of 15.8 nM. The Ki in assay [2] was 0.83 nM. On the same counts, the results for `COc1ccc2c(c1)CCC(NC(=O)N(C)C)C2` (stereo not drawn) are 16.4 nM and 0.67 nM. For `COc1cccc2c1CC[C@H](NC(=O)N(C)C)C2`, in that order: 19.9 nM and 0.98 nM. For `CN(C)S(=O)(=O)NC1CCc2ccc(O)cc2C1` (stereo not drawn), in that order: 37 nM and 0.72 nM.

For `CN(C)S(=O)(=O)NC1CCc2c(O)cccc2C1` (stereo not drawn), in assay [1], the IC50 amounted to 30.9 nM. For the same compound, in assay [2], the Ki turned out to be 1.34 nM. Consider `CN(C)C(=O)N[C@H]1CCc2c(O)cccc2C1`, for which, in assay [1], 132 nM corresponded to half-maximal inhibition (IC50). The compound further yielded a Ki in assay [2] of 1.59 nM. In the case of `COc1ccc2c(c1)CCC(NS(=O)(=O)N(C)C)C2` (stereo not drawn), the midpoint of inhibition in assay [1], the IC50, lay at 17 nM. This compound showed a Ki in assay [2] of 1.05 nM. On the same counts, the results for `COc1ccc2c(c1)C[C@@H](NC(=O)N(C)C)CC2` are 22.4 nM and 1.06 nM. `Oc1ccc(O)cc1` [HYDROQUINONE] registered a Ki in assay [3] of 1.22 nM.

For the origin of these results see ChEMBL document CHEMBL3784977, “Acetylcholinesterase and carbonic anhydrase inhibitory properties of novel urea and sulfamide derivatives incorporating dopaminergic 2-aminotetralin scaffolds” (Bioorg Med Chem, 2016).
